Laboratory results reported in ChEMBL document CHEMBL3872207, “Aromatic heterocyclic esters of podophyllotoxin exert anti-MDR activity in human leukemia K562/ADR cells via ROS/MAPK signaling pathways” (Eur J Med Chem, 2016).

Columns and labels:
K562/Adr [1] = experiment: Induction of apoptosis in human K562/ADR cells assessed as early apoptotic cells at 0.1 uM pretreated with MAPK inhibitor SP600125 for 1 hr followed by compound addition after 48 hrs by Annexin V-APC/7-AAD staining based flow cytometry (reference value: 2.74%); type: functional; design: scale not given: the % may be the effect or the level left
K562/Adr [2] = experiment: Induction of apoptosis in human K562/ADR cells assessed as late apoptotic cells at 0.1 uM pretreated with MAPK inhibitor SP600125 for 1 hr followed by compound addition after 48 hrs by Annexin V-APC/7-AAD staining based flow cytometry (reference value: 1.69%); type: functional; design: scale not given: the % may be the effect or the level left
K562/Adr [3] = experiment: Induction of apoptosis in human K562/ADR cells assessed as ratio of cleaved PARP to beta-actin level at 0.1 uM measured after 48 hrs by Western blot analysis (reference value: 0.04); type: functional
K562/Adr [4] = experiment: Induction of apoptosis in human K562/ADR cells assessed as early apoptotic cells at 0.1 uM pretreated with MAPK inhibitor U0126 for 1 hr followed by compound addition after 48 hrs by Annexin V-APC/7-AAD staining based flow cytometry (reference value: 2.74%); type: functional; design: scale not given: the % may be the effect or the level left
[5] = Downregulation of CyclinB1 expression in human K562/ADR cells assessed as ratio of CyclinB1 to beta-actin level at 0.1 uM pretreated with MAPK inhibitor U0126 for 1 hr followed by compound addition measured after 48 hrs by Western blot analysis (reference value: 0.77); type: functional, cell-based
K562/Adr [6] = experiment: Induction of apoptosis in human K562/ADR cells assessed as ratio of cleaved PARP to beta-actin level at 0.1 uM pretreated with ROS scavenger NAC for 2 hrs followed by compound addition measured after 48 hrs by Western blot analysis (reference value: 0.04); type: functional
K562/Adr [7] = experiment: Induction of ERK1/2 phosphorylation in human K562/ADR cells assessed as ratio of phosphorylated ERK1/2 to beta-actin level at 0.1 uM pretreated with ROS scavenger NAC for 2 hrs followed by compound addition after 48 hrs by Western blotting method (reference value: 0.22); type: cell-based
[8] = Downregulation of P-gp expression in human K562/ADR cells assessed as ratio of P-gp to beta-actin level at 0.1 uM pretreated with MAPK inhibitor SB203580 for 1 hr followed by compound addition measured after 48 hrs by Western blot analysis (reference value: 0.63); type: functional, cell-based
K562/Adr [9] = experiment: Induction of apoptosis in human K562/ADR cells assessed as necrotic cells at 0.1 uM after 48 hrs by Annexin V-APC/7-AAD staining based flow cytometry (reference value: 0.26%); type: functional
K562/Adr [10] = experiment: Induction of apoptosis in human K562/ADR cells assessed as ratio of cleaved caspase-9 to beta-actin level at 0.1 uM pretreated with MAPK inhibitor U0126 for 1 hr followed by compound addition measured after 48 hrs by Western blot analysis (reference value: 0.05); type: functional
K562/Adr [11] = experiment: Induction of apoptosis in human K562/ADR cells assessed as necrotic cells at 0.1 uM pretreated with MAPK inhibitor U0126 for 1 hr followed by compound addition after 48 hrs by Annexin V-APC/7-AAD staining based flow cytometry (reference value: 0.26%); type: functional; design: scale not given: the % may be the effect or the level left
[12] = Antiproliferative activity against human K562/ADR cells measured after 72 hrs by CCK8 assay; type: functional, cell-based
K562/Adr [13] = experiment: Induction of apoptosis in human K562/ADR cells assessed as ratio of cleaved PARP to beta-actin level at 0.1 uM pretreated with MAPK inhibitor SP600125 for 1 hr followed by compound addition measured after 48 hrs by Western blot analysis (reference value: 0.04); type: functional
K562/Adr [14] = experiment: Induction of ERK1/2 phosphorylation in human K562/ADR cells assessed as ratio of phosphorylated ERK1/2 to beta-actin level at 0.1 uM pretreated with MAPK inhibitor SB203580 for 1 hr followed by compound addition after 48 hrs by Western blotting method (reference value: 0.22); type: cell-based
[15] = target: c-Jun N-terminal kinase, JNK (Homo sapiens) (UniProt P45983+P53779+P45984); experiment: Induction of JNK phosphorylation in human K562/ADR cells assessed as ratio of phosphorylated JNK to beta-actin level at 0.1 uM pretreated with ROS scavenger NAC for 2 hrs followed by compound addition after 48 hrs by Western blotting method (reference value: 0.46); type: cell-based
K562/Adr [16] = experiment: Induction of apoptosis in human K562/ADR cells assessed as ratio of cleaved caspase-9 to beta-actin level at 0.1 uM pretreated with MAPK inhibitor SB203580 for 1 hr followed by compound addition measured after 48 hrs by Western blot analysis (reference value: 0.05); type: functional
K562/Adr [17] = experiment: Induction of apoptosis in human K562/ADR cells assessed as late apoptotic cells at 0.1 uM pretreated with ROS scavenger NAC for 2 hrs followed by compound addition after 48 hrs by Annexin V-APC/7-AAD staining based flow cytometry (reference value: 1.69%); type: functional
[18] = Downregulation of P-gp expression in human K562/ADR cells assessed as ratio of P-gp to beta-actin level at 0.1 uM pretreated with MAPK inhibitor U0126 for 1 hr followed by compound addition measured after 48 hrs by Western blot analysis (reference value: 0.63); type: functional, cell-based
K562/Adr [19] = experiment: Induction of intracellular ROS accumulation in human K562/ADR cells assessed as fluorescence intensity at 0.1 uM measured after 24 hrs by DCFH-DA probe based flow cytometry relative to vehicle-treated control; type: functional
[20] = Downregulation of CDK1 expression in human K562/ADR cells assessed as ratio of CDK1 to beta-actin level at 0.1 uM pretreated with MAPK inhibitor SB203580 for 1 hr followed by compound addition measured after 48 hrs by Western blot analysis (reference value: 0.53); type: functional, cell-based
K562/Adr [21] = experiment: Induction of apoptosis in human K562/ADR cells assessed as ratio of cleaved caspase-3 to beta-actin level at 0.1 uM measured after 48 hrs by Western blot analysis (reference value: 0.06); type: functional
[22] = Downregulation of CDK2 expression in human K562/ADR cells assessed as ratio of CDK2 to beta-actin level at 0.1 uM pretreated with ROS scavenger NAC for 2 hrs followed by compound addition measured after 48 hrs by Western blot analysis (reference value: 0.65); type: functional, cell-based
[23] = Downregulation of CyclinA expression in human K562/ADR cells assessed as ratio of CyclinA to beta-actin level at 0.1 uM pretreated with ROS scavenger NAC for 2 hrs followed by compound addition measured after 48 hrs by Western blot analysis (reference value: 0.64); type: functional, cell-based
K562/Adr [24] = experiment: Induction of apoptosis in human K562/ADR cells assessed as late apoptotic cells at 0.1 uM pretreated with MAPK inhibitor SB203580 for 1 hr followed by compound addition after 48 hrs by Annexin V-APC/7-AAD staining based flow cytometry (reference value: 1.69%); type: functional; design: scale not given: the % may be the effect or the level left
K562/Adr [25] = experiment: Induction of apoptosis in human K562/ADR cells assessed as necrotic cells at 0.1 uM pretreated with ROS scavenger NAC for 2 hrs followed by compound addition after 48 hrs by Annexin V-APC/7-AAD staining based flow cytometry (reference value: 0.26%); type: functional

**Q.** What does the source list for COc1cc([C@@H]2c3cc4c(cc3[C@H](OC(=O)c3ccco3)[C@H]3COC(=O)[C@H]23)OCO4)cc(OC)c1OC?
**A.** Activity (K562/Adr [1]): 7.8%; Activity (K562/Adr [2]): 30.33%; Ratio (K562/Adr [3]): 0.84; Activity (K562/Adr [4]): 8.73%; Ratio [5]: 0.51; Ratio (K562/Adr [6]): 0.13; Ratio (K562/Adr [7]): 0.22; Ratio [8]: 0.34; Activity (K562/Adr [9]): 5.49%; Ratio (K562/Adr [10]): 0.26; Activity (K562/Adr [11]): 3.32%; IC50 [12]: 32 nM; Ratio (K562/Adr [13]): 0.53; Ratio (K562/Adr [14]): 0.15; Ratio [15]: 0.51; Ratio (K562/Adr [16]): 0.44; Activity (K562/Adr [17]): 24.34%; Ratio [18]: 0.35; fold change (FC) (K562/Adr [19]): 2.396; Ratio [20]: 0.2; Ratio (K562/Adr [21]): 0.68; Ratio [22]: 0.43; Ratio [23]: 0.58; Activity (K562/Adr [24]): 30.87%; Activity (K562/Adr [25]): 2.14%
